From patent US20240034991A1, “METHOD FOR EFFICIENTLY INDUCING REPROGRAMMING OF HUMAN CELL INTO NEURONAL CELL” (GUANGXI UNIVERSITY, priority 2022, published 2024)

Test system: Human skin fibroblasts (BJ)
Assay: Immunofluorescence detection of neuronal cell marker antigens in induced human skin fibroblasts (CiNCs)
Type: cell-based
Method: After 48 h of induction, the induction medium was replaced with a neuronal cell maturation medium to continue promoting further maturation of the CiNCs, and the neuronal cell maturation medium was replaced with a neuronal cell medium after 72 h for long-term culture.
Immunofluorescence detection of neuronal cell marker antigens was conducted on human skin fibroblasts and cells induced by neuronal cell induction (N2B27+10 μM Forskolin) for 48 h. The method included the following specific steps: human skin fibroblasts and F-48h cells in a culture plate were fixated with 4% paraformaldehyde (PFA) at room temperature for 30 min; the cells were washed with a blocking solution three times, 5 min in each time; the cells were permeabilized by 1% TritonX-100 for 15 min at room temperature; the cells were washed with the blocking solution three times again; non-specific sites were blocked with 5% donkey serum, and then blocked for 2 h at room temperature; the cells were washed three times with TBP (Tritonx-Bovine albumin-Phosphate Buffer Saline) for 5 min in each time; a primary antibody was added for incubation at 4° C. overnight; on a next day, the culture plate was placed at room temperature, rewarmed for 20 min, and then washed with TBP three times for 5 min in each time, a secondary antibody and a Hoechst mixture were added in the dark, and incubated at room temperature for 1 h; after washing three times with a TBP solution, fluorescence microscope observation and photographing experiment were conducted.

| SMILES | Expression of neuronal cell marker antigens TUJ1, MAP2 and NeuN (immunofluorescence, FIG. 5) (N2B27+KSR+5 μM compound) | other results |
| --- | --- | --- |
| C=C[C@@]1(C)CC(=O)[C@]2(O)[C@@]3(C)[C@@H](O)CCC(C)(C)[C@@H]3[C@H](O)[C@H](OC(C)=O)[C@@]2(C)O1 [Forskolin] |  | TUJ1 positive rate of CiNCs (N2B27+KSR+10 μM Forskolin, 48 h after induction): 80% |
| c1ccc2c(-c3cnn4cc(-c5ccc(N6CCNCC6)cc5)cnc34)ccnc2c1 [LDN193189] | expressed neuronal cell marker antigens TUJ1, MAP2 and NeuN |  |
| C[S+]([O-])c1ccc(-c2nc(-c3ccncc3)c(-c3ccc(F)cc3)[nH]2)cc1 (stereo not shown) [SB203580] | expressed neuronal cell marker antigens TUJ1, MAP2 and NeuN |  |
| Nc1ncnc2c1ncn2[C@@H]1O[C@@H]2COP(=O)(O)O[C@H]2[C@H]1O [cAMP, cyclic Adenosine Monophosphate] |  | Expression of neuronal cell marker antigens TUJ1, MAP2 and NeuN (immunofluorescence, FIG. 5) (N2B27+KSR+10 μM compound): expressed neuronal cell marker antigens TUJ1, MAP2 and NeuN |
